The target in one series is T1, human DNA Topo II (Homo sapiens, UniProt P11388).
T1 construct: purchased USB Corp., USA
Kind of series: In vitro DNA Topo II-mediated relaxation assay (supercoiled pBR322). The format is biochemical. The following applies: for IC50: means of three experiments, read-out: Topo II IC50 (µM*±SD); for inhibition at 0.1 µM / inhibition at 1 µM / inhibition at 10 µM / inhibition at 100 µM: recombinant Topo II relaxation; for inhibition at 0.1 µM: compound at 0.1 μM, read-out: Percentage of inhibition of Topo II, 0.1 μM; for inhibition at 1 µM: compound at 1 μM, read-out: Percentage of inhibition of Topo II, 1 μM; for inhibition at 10 µM: compound at 10 μM, read-out: Percentage of inhibition of Topo II, 10 μM; for inhibition at 100 µM: compound at 100 μM, read-out: Percentage of inhibition of Topo II, 100 μM. The protocol: DNA Topo II inhibitory activities of the targeted compounds were measured as follows. A mixture of 100 ng of supercoiled pBR322 plasmid DNA (Fermentas, USA) and 2 units of human DNA Topo II (USB Corp., USA) was incubated with and without the prepared compounds in the assay buffer (10 µM Tris-HCl pH 7.9) containing 50 µM NaCl, 4 µM MgCl2, 1 µM EDTA, 1 µM ATP, and 15 mg/ml bovine serum albumin for 30 min at 37 °C. The reaction in a final volume of 10 µl was terminated by the addition of 4 µl of 6 µM EDTA. DNA samples were then electrophoresed on 1% agarose gel containing 0.5 µg/ml ethidium bromide in gel and buffer at high voltage (100–250 v) until the dye front has migrated about 4–6 cm down the gel. with a running buffer of TAE Tris-acetate– EDTA (TAE). Gels were stained for 15 min in water. DNA bands were visualised by transillumination with UV light and quantitated using AlphaI-maker TM (Alpha Innotech Corporation).
Well-known Topo II inhibitor doxorubicin was used as a positive control. The reaction products of Topo II relaxation assays were analysed by electrophoretic mobility and developed in ethidium bromide in the presence of UV light. The inhibitory activities were evaluated at 4 concentrations of 100, 10, 1, and 0.1 μM for all compounds as shown in (Figure 6). Topo II inhibitory activities of the tested compounds are summarised in (Table 2).

Series [1] concerns Human bladder cancer (T-24) cell line. Briefly: MTT cell viability assay, T-24 cells. The format is cell-based. The following applies: bladder cancer cell line T-24, treatment for 24 h (table title), means of three experiments, read-out: IC50 (μM* ± SD) T-24. Here is the method: (§1) Human bladder cancer (T-24) and human prostate carcinoma (PC-3) cell lines were obtained from American Type Culture Collection (ATCC; Manassas, VA USA). Cells were maintained in Dulbecco’s modified Eagle medium with 10% foetal bovine serum at 37 °C and 5% CO2. All the operations were carried out under strict aseptic conditions. The culture medium was removed to a centrifuge tube containing 9.0 ml complete culture medium and spanned at approximately 125 × g for 5 to 7 min. The cell layer was rinsed with 0.25% (w/v) trypsin- […] EDTA solution by which all traces of serum-containing inhibitor were removed. Trypsin EDTA solution 2.0 to 3.0 ml was added to a flask and cells were monitored under an inverted microscope until the cell layer was dispersed (usually within 5–15 min). A complete growth medium was added (6.0–8.0 ml), and cells were aspirated by gentle pipetting. The cell pellet was suspended with the recommended complete medium and dispensed into a 75 cm^2 culture flask. The culture vessel containing the complete growth medium was placed in the incubator for 24 h to at 37 °C. The cells were treated with different concentrations (0.39, 1.60, 6.25, 25, and 100 μg/ml) of each of the test compounds or doxorubicin, […], then the plates were examined under the inverted microscope and finally the MTT assay was carried out.
(§2) Anti-cancer activity of the newly synthesised compounds was evaluated in vitro against both T-24 and PC-3 cell lines according to the MTT method. Cells were seeded into 96-well plates (flat bottom) at a density of 10 000 cells/well for 24 h. The vial of MTT to be used was reconstituted with 3 ml of medium or balanced salt solution without phenol red and serum. then, a reconstituted MTT vial was added in an amount equal to 10% of the culture medium volume. Cultures were incubated for 2–4 h depending on the cell type and maximum cell density and removed from the incubator and the formazan crystals were dissolved via the addition of an amount of MTT solubilisation solution (M-8910) equal to the original culture medium volume. ROBONIK P2000 spectrophotometer at a wavelength of 570 nm was used to measure the colour intensity spectrophotometrically. The survival curve of both T-24 and PC-3 cells was obtained by plotting the percentage of surviving cells against the drug after each compound. The IC50 value for each test compound and the reference drug doxorubicin was calculated.
(§3) In this study, all the newly synthesised CP derivatives were subjected to anticancer activity evaluation against bladder (T-24) and prostate cancer (PC-3) cell lines. The compounds were evaluated for their activity using 5 doses determinations (100 μg/ml, 25 μg/ml, 6.25 μg/ml, 1.60 μg/ml, and 0.39 μg/ml). Their half-maximal inhibitory concentration (IC50) values were measured. Doxorubicin was chosen as a reference anticancer drug[65].
(In general: Formazan colour is commonly taken as a measure of viable cells.)

Series [2] concerns human prostate carcinoma (PC-3) cell line. Briefly: MTT cell viability assay, PC-3 cells. Type of series: cell-based. The following applies: prostate cancer cell line PC-3, treatment for 24 h (table title), means of three experiments, read-out: IC50 (μM* ± SD) PC-3. The protocol:
as §1, §2, §3

The test system of the next series is active caspase-3. Kind of series: Active caspase-3 ELISA in T-24 cells. The format is cell-based, human. The following applies: 6 at 5.68 μM, 8a at 3.36 μM, means of three experiments. The protocol: The level of the apoptotic marker caspase-3 was measured using The Invitrogen Caspase-3 (active) Human ELISA Kit. The procedure of the used kit was done according to the manufacturer’s instructions.
Caspase-3 (a key effector enzyme) plays an important role in apoptosis since its activation leads to catalysing specific enzymes responsible for DNA fragmentation, which leads to cell death. Apoptosis induction in T-24 cells by compounds 6 and 8a was investigated via caspase 3, compared to doxorubicin as a reference drug.

The structures appear in SMILES notation.

T1 sequence (P11388 whole entry): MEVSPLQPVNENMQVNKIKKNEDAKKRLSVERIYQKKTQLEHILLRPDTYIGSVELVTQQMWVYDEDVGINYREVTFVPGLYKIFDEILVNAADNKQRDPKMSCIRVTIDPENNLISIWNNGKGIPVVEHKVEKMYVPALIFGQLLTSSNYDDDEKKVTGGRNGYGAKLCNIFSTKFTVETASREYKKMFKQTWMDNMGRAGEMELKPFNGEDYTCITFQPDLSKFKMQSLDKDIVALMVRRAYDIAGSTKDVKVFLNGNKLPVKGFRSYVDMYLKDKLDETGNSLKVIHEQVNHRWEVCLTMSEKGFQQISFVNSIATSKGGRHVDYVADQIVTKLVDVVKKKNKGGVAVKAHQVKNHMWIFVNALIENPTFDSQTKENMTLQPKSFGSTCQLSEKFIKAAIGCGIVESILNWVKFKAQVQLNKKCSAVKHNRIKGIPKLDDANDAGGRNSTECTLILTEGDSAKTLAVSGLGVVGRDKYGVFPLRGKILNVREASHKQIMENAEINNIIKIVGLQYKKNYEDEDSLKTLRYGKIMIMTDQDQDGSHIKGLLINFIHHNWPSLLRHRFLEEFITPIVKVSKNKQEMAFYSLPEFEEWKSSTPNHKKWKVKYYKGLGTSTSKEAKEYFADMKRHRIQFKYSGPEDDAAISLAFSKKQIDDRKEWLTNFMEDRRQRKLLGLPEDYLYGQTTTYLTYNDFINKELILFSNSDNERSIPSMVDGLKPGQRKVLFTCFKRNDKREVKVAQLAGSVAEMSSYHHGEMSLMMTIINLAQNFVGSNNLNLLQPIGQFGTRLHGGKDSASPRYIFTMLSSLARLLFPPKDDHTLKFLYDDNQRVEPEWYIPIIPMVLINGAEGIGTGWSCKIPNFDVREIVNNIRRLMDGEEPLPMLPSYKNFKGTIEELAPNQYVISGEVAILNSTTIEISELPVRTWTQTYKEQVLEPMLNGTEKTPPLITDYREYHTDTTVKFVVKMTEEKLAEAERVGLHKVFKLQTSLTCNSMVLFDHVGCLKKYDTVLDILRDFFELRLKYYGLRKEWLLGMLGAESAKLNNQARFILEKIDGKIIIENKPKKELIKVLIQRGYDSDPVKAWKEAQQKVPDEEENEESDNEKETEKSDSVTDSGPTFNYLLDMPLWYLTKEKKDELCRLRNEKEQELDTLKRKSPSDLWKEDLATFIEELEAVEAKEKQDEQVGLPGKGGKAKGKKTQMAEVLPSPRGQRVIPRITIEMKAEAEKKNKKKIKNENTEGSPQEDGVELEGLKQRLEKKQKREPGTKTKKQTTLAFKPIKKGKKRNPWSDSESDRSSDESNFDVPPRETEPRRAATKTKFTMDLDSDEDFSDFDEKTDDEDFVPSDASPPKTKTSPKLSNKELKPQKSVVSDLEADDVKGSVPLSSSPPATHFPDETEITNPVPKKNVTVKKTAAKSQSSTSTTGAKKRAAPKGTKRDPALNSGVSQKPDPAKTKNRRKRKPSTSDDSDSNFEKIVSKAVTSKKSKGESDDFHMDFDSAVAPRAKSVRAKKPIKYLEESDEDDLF

In the case of `O=C(CN1CCN(c2cc3c(cc2F)c(=O)c(C(=O)O)cn3C2CC2)CC1)NN=C1CCCCC1` [Compound 7a, 7-(4-(2-(2-Cyclohexylidenehydrazinyl)-2-oxoethyl)piperazin-1-yl)-1-cyclopropyl-6-fluoro-4-oxo-1,4-dihydroquinoline-3-carboxylic acid], the melting point (in general, the temperature, or range, at which the solid turns liquid) lay within 256 to 258 °C. Further, at human DNA Topo II, the IC50 (usually the midpoint of a concentration-inhibition curve) was 4.99 ± 0.27 µM, the inhibition (usually how much of the control response was suppressed) at 0.1 µM came out at 13.7%, the inhibition at 1 µM was 27.9% and the inhibition at 10 µM came out at 55.9%. Besides, the inhibition at 100 µM on human DNA Topo II was 83.6%. In series [1], the IC50 stood at 3.88 ± 0.21 µM. Besides, in series [2], the 50% inhibitory concentration (IC50) worked out at 9.35 ± 0.48 µM.

The compound `CC(=NNC(=O)CN1CCN(c2cc3c(cc2F)c(=O)c(C(=O)O)cn3C2CC2)CC1)c1ccc(Cl)cc1` [Compound 7b, 7-(4-(2-(2-(1-(4-Chlorophenyl)ethylidene)hydrazinyl)-2-oxoethyl)-piperazin-1-yl)-1-cyclopropyl-6-fluoro-4-oxo-1,4-dihydroquinoline-3-carboxylic acid] yielded a melting point of 178 to 180 °C. At human DNA Topo II, the IC50 is 3.34 ± 0.18 µM, the inhibition at 0.1 µM was found to be 18.4%, the inhibition at 1 µM amounted to 34% and the inhibition at 10 µM was 60.3%. In addition, the inhibition at 100 µM on human DNA Topo II came out at 85.2%. Besides, the IC50 in series [1] is 11.5 ± 0.63 µM. The IC50 in series [2] is 19 ± 0.96 µM.

As for `O=C(CN1CCN(c2cc3c(cc2F)c(=O)c(C(=O)O)cn3C2CC2)CC1)NNC(=O)Nc1ccc(Cl)c(C(F)(F)F)c1` [Compound 9a, 7-(4-(2-(2-((4-Chloro-3-(trifluoromethyl)phenyl)carbamoyl)-hydrazinyl)-2-oxoethyl)piperazin-1-yl)-1-cyclopropyl-6-fluoro-4-oxo-1,4-dihydroquinoline-3-carboxylic acid], the melting point fell in the range of 186 to 188 °C. Also, at human DNA Topo II, the IC50 is 2.58 ± 0.14 µM, the inhibition at 0.1 µM turned out to be 23.6%, the inhibition at 1 µM turned out to be 40.3% and the inhibition at 10 µM stood at 57%. On human DNA Topo II, the inhibition at 100 µM came out at 86.5%. Further, the IC50 in series [1] was 4.35 ± 0.24 µM. In addition, the IC50 in series [2] amounted to 67.2 ± 3.42 µM.

For `O=C(CN1CCN(c2cc3c(cc2F)c(=O)c(C(=O)O)cn3C2CC2)CC1)NNCC(=O)c1ccc([N+](=O)[O-])cc1` [Compound 10c, 1-Cyclopropyl-6-fluoro-7-(4-(2-(2-(2-(4-nitrophenyl)-2-oxoethyl)-hydrazinyl)-2-oxoethyl)piperazin-1-yl)-4-oxo-1,4-dihydroquinoline-3-carboxylic acid], the melting point lay within 221 to 223 °C. Further, on human DNA Topo II, the IC50 amounted to 1.69 ± 0.09 µM, the inhibition at 0.1 µM worked out at 24.8%, the inhibition at 1 µM was 37.7% and the inhibition at 10 µM turned out to be 72.6%. Besides, the inhibition at 100 µM on human DNA Topo II is 90.2%. In addition, in series [1], the IC50 amounted to 10.1 ± 0.55 µM. Further, the IC50 in series [2] worked out at 3.25 ± 0.167 µM.

For `O=C(CN1CCN(c2cc3c(cc2F)c(=O)c(C(=O)O)cn3C2CC2)CC1)NN=C1NC(=O)CS1` [Compound 14, 1-cyclopropyl-6-fluoro-4-oxo-7-(4-(2-oxo-2-(2-(4-oxothiazolidin-2-ylidene)hydrazinyl)ethyl)piperazin-1-yl)-1,4-dihydroquinoline-3-carboxylic acid], the melting point was in the range of 240 to 242 °C. In addition, in series [1], the IC50 came out at 19.5 ± 0.58 µM. The IC50 in series [2] came to 6.49 ± 0.24 µM.

As for `O=C(CN1CCN(c2cc3c(cc2F)c(=O)c(C(=O)O)cn3C2CC2)CC1)NN=c1[nH]c(-c2ccccc2)cs1` [Compound 15, 1-cyclopropyl-6-fluoro-4-oxo-7-(4-(2-oxo-2-(2-(4-phenylthiazol-2(3H)-ylidene)hydrazinyl)ethyl)piperazin-1-yl)-1,4-dihydroquinoline-3-carboxylic acid], the melting point fell in the range of 256 to 258 °C. In addition, in series [1], the IC50 was 15.9 ± 0.87 µM. Besides, in series [2], the IC50 stood at 7.54 ± 0.39 µM.

Take `COc1cccc2c1C(=O)c1c(O)c3c(c(O)c1C2=O)C[C@@](O)(C(=O)CO)C[C@@H]3O[C@H]1C[C@H](N)[C@H](O)[C@H](C)O1` [Doxorubicin, reference compound]: the IC50 came out at 1.72 ± 0.08 µM on human DNA Topo II, 29.1 ± 1.56 µM in series [1] and 23.1 ± 1.18 µM in series [2]. In addition, in the series on active caspase-3, the “Caspase-3 conc. (pg/ml* ± SD)” value is 598.8 ± 8.63 pg/mL.

Values taken from paper PMC9635472, “Design, synthesis, and biological evaluation of novel ciprofloxacin derivatives as potential anticancer agents targeting topoisomerase II enzyme” (Journal of Enzyme Inhibition and Medicinal Chemistry, 2022).
